Source: paper PMC4907212, “Mucosal and blood-brain barrier transport kinetics of the plant N-alkylamide spilanthol using in vitro and in vivo models” (BMC Complementary and Alternative Medicine, 2016)
Like-named read-outs stand apart in the source and are kept apart here.

Columns and labels:
[1] = Caco-2 cell permeability assay (Transwell, ab and ba direction); type: in vitro ADME, human; settings: human; for Papp A→B at 120 min, 10 μg/ml / Papp B→A at 120 min, 10 μg/ml: mean ± SD, n = 2; for Papp A→B at 120 min, 10 μg/ml: read-out: apparent permeability coefficient (Papp), apical-to-basolateral; for Papp B→A at 120 min, 10 μg/ml: read-out: apparent permeability coefficient (Papp), basolateral-to-apical; for efflux ratio at 120 min, 10 μg/ml: read-out: efflux ratio (Papp,ba/Papp,ab)
Procedure: (§1) Caco-2 cells, originating from a human colorectal carcinoma were maintained in Dulbecco's modified Eagle's medium (DMEM) at 95 % humidity and 37 °C in an atmosphere of 5 % CO2, supplemented with 10 % (V/V) fetal bovine serum, 2 mM L-glutamine and 1 % non-essential amino acids (100x), 100 U/ml penicillin and 100 μg/ml streptomycin (all from Invitrogen/GIBCO, Ghent, Belgium). The Caco-2 cell intestinal model was used as a model for the gut mucosa to investigate the permeation of spilanthol. Caco-2 cells were seeded at a density of 2.6 · 10^5 cells/cm^2 cells for each Transwell (Corning Costar, New York, USA) membrane insert filter (0.4 μm pore size, 12 mm filter diameter) and cultivated in the described supplemented DMEM, also containing 100 units/ml penicillin and 100 μg/ml streptomycin. The medium was changed every second day. The cells were allowed to grow and differentiate for 21-29 days until monolayers were formed. Intact membranes/integrity of the monolayers were checked via the measurement of transepithelial electrical resistance (TEER) of the monolayers using the Millicell-ERS system (Millipore Corp., Bedford, MA, USA) before and after transport experiments. The experiment was performed in duplicate for each dose solution. Transport experiments were carried out in the apical-to-basolateral (ab) direction and in the basolateral-to-apical (ba) direction in Hanks' Balanced Salt solution, according to Hubatsch et al.. Two dose solutions of purified spilanthol at 10 μg/ml were tested, differing in solvent: 0.5 % ethanol (further indicated as DS1) and 0.5 % of a mixture of vitamin E-TPGS (33.3 %), ethanol (11.1 %), PEG 400 (33.3 %) and PG (22.2 %) (further indicated as DS2) dissolved in HBSS. Final volumes of 0.4 ml apically and 1.2 ml basolaterally were used for 12-mm filter supports during the transport experiment. Samples were taken at 15, 30, 60, 90 and 120 min from the acceptor (= receiver) compartment (basolateral to apical transport: 100 μl; apical to basolateral transport: 300 μl) and were immediately replaced by fresh HBSS. […] Quantification of spilanthol was conducted using the UPLC-MS^2 method as described below. The apparent permeability coefficient (Papp in cm/s) of spilanthol was calculated from a non-sink equation. From Fick's first law: J = - […] is the diffusion coefficient, J is the flux or transfer rate along the donor-to-receptor side, x is the distance from the donor compartment and C(x) is the concentration in the barrier at the coordinate x in the barrier), the following differential equation is derived: dMr(t)/dt = Papp × […])], in which Mr is the amount of substance in the receiver chamber, Papp is the apparent permeability coefficient (a product of distribution coefficient with diffusion coefficient divided by the barrier thickness), A is the cross-sectional area of the barrier, Cd is the donor concentration and Cr is the receiver concentration. This differential equation is the basis to calculate Papp values of compounds requiring sink, as well as non-sink conditions with different initial conditions to solve this equation. […] Non-linear curve fitting by minimisation of the sum of squared residuals (SSR) was used to obtain the Papp. The efflux ratio is calculated as Papp,ba/Papp,ab, while the uptake ratio is calculated as Papp,ab/Papp,ba.

Caco-2 cell monolayer = assay: as above; type: in vitro ADME, human
Procedure: as §1

[2] = design: method as in PMID 20227845, PMID 19808085, PMID 23583736; settings: porcine buccal mucosa; cited from earlier work
[3] = design: method as in PMID 20227845, PMID 19808085, PMID 23583736; settings: human skin, topical application; cited from earlier work
[4] = Serum elimination kinetics in the mice MTR model after intravenous injection; type: in vivo, ICR-CD-1 mice
[5] = design: method as in PMID 24055064; settings: source not stated; cited from earlier work

C/C=C/C=C\CC/C=C/C(=O)NCC(C)C [spilanthol, deca-2E,6Z,8E-trienoic acid isobutylamide]
Papp A→B at 120 min, 10 μg/ml ([1]; Caco-2, DS1 (10 μg/ml purified spilanthol, 0.5 % ethanol in HBSS)): 84.2 ×10⁻⁶ cm/s
Papp B→A at 120 min, 10 μg/ml ([1]; Caco-2, DS1): 102 ×10⁻⁶ cm/s
efflux ratio at 120 min, 10 μg/ml ([1]; Caco-2, DS1): 1.21
Papp A→B at 120 min, 10 μg/ml ([1]; Caco-2, DS2 (10 μg/ml, 0.5 % vitamin E-TPGS/ethanol/PEG 400/PG mixture in HBSS)): 56.1 ×10⁻⁶ cm/s
Papp B→A at 120 min, 10 μg/ml ([1]; Caco-2, DS2): 52 ×10⁻⁶ cm/s
efflux ratio at 120 min, 10 μg/ml ([1]; Caco-2, DS2): 0.93
recovery at 120 min, 10 μg/ml ([1]; Caco-2, donor plus acceptor at last time point (120 min), read-out: mass balance, total recovery): 105 to 121%
uptake ratio (Papp,ab/Papp,ba) (Caco-2 cell monolayer; DS1): 0.82
amount of spilanthol permeated, apical-to-basolateral (Caco-2 cell monolayer; DS1, after 120 min): 3.20 µg
amount of spilanthol permeated, basolateral-to-apical (Caco-2 cell monolayer; DS1, after 120 min): 3.86 µg
percentage of applied spilanthol permeated, apical-to-basolateral (Caco-2 cell monolayer; DS1, after 120 min): 79.8%
percentage of applied spilanthol permeated, basolateral-to-apical (Caco-2 cell monolayer; DS1, after 120 min): 32.1%
uptake ratio (Papp,ab/Papp,ba) (Caco-2 cell monolayer; DS2): 1.08
amount of spilanthol permeated, apical-to-basolateral (Caco-2 cell monolayer; DS2, after 120 min): 2.47 µg
amount of spilanthol permeated, basolateral-to-apical (Caco-2 cell monolayer; DS2, after 120 min): 2.49 µg
percentage of applied spilanthol permeated, apical-to-basolateral (Caco-2 cell monolayer; DS2, after 120 min): 64.3%
percentage of applied spilanthol permeated, basolateral-to-apical (Caco-2 cell monolayer; DS2, after 120 min): 21.6%
percentage of applied DS permeated, apical-to-basolateral (absorptive direction) (Caco-2 cell monolayer; after 120 min, DS1 and DS2): 64–80%
difference in Papp values between apical-to-basolateral and basolateral-to-apical direction (Caco-2 cell monolayer; both dose solutions): less than 2 fold
permeability coefficient Kp,aq [2]: 3.14 ×10⁻⁶ cm/s
permeability coefficient Kp,aq [3]: 0.919 ×10⁻⁶ cm/s
half-life ([4]; female, ICR-CD-1, iv, 80 μg per mouse, mouse serum, i.v.): 3.16 min
k el ([4]; female, ICR-CD-1, iv, 80 μg per mouse, mouse serum, i.v., one compartmental model, read-out: elimination rate constant (converted)): 0.00367 s⁻¹
concentration of spilanthol at time zero in serum ([4]; mice, i.v. 20 μl of 4 mg/ml, one compartmental model): 3050 ng/mL
LogP [5]: 3.39
